Experimental findings from patent US9278963B2, “Pyrimidine hydroxy amide compounds as histone deacetylase inhibitors” (Acetylon Pharmaceuticals, Inc., priority 2013, dated 2016) are described below.

The test system of data set [1] is SK-N-BE(2) or SH-SY5Y neuroblastoma cells. Kind of data set: Neuroblastoma differentiation index. It is filed as cell-based. Particulars: for differentiation index, low-concentration ATRA: 0.25 μM ATRA, alone or with HDAC inhibitor. On the procedure:
SK-N-BE(2) or SH-SY5Y neuroblastoma cells were treated with varying concentrations of either Compound X or Y, and/or ATRA (all trans retinoic acid). The differentiation index was measured.
SK-N-BE(2) or SH-SY5Y neuroblastoma cells were treated with varying concentrations of either Compound X or Y, and/or ATRA (all trans retinoic acid). The differentiation index was measured. As a control, SK-N-BE(2) or SH-SY5Y neuroblastoma cells were treated with varying concentrations of ATRA.

The subject of data set [2] is SH-SY5Y neuroblastoma cells. Kind of data set: Neuroblastoma cell cycle by flow cytometry, SH-SY5Y. It is filed as cell-based. On the procedure:
The following is a quick summary of the neuroblastoma cell cycle experiments. Adherent cells were plated into 12-well plates at 10^6 cells/well and allowed to adhere for 2-4 hours. Compounds were dispensed in DMSO at the indicated concentrations using an automated liquid handling system (Tecan D300) and incubated for the indicated times at 37° C. with 5% CO2. Cells were harvested with enzyme-free cell disassociation solution and washed with buffered saline. Cells were fixed overnight with 100% ethanol. Cell cycle was assessed by flow cytometry using the Molecular Probes FxCycle PI/RNase Staining Solution kit according to manufacture protocols.
The protocol for the cell cycle experiments was as follows. The day before the experiment, the cells were fed in the flask by doubling the media. Then, the cells were harvested by adding non-enzymatic cell dissociation media and incubating at 37° C. for 15 minutes. Next, the cells were transferred to a 50 ml tube and pipet to create a single-cell suspension. The cells were then washed with PBS buffer. Then, the cells were resuspended in complete media at 5×10^5 cells per ml. Next, 2 ml of cells were transferred to 12-well plates. Then, the treatment compounds were dispensed into each well using the D300 liquid handler. The cells were incubated for the indicated time at 37° C. Then, the cells were harvested by adding 500 μl enzyme free cell dissociation solution and incubating at 37° C. for 15 minutes. Next, the cells were spun into a pellet and then washed with PBS. Then, 500 μl 100% EtOH was added and incubated at 4° C. overnight. Then, the cells were washed 3× with PBS. The cells were then resuspended in […] FxCycle PI/RNase solution, and incubated for 2-4 hours at room temperature. Finally, the cells were assayed by flow cytometry.
SH-SY5Y neuroblastoma cells were treated with varying concentrations of either Compound X or Y, and/or ATRA (all trans retinoic acid). […] In addition, the fold change of p21 was also calculated. […] The HDACi/ATRA combination effects were modest, with little difference compared to single agents.

Data set [3] concerns the target HDAC3 (Homo sapiens (Human), UniProt O15379). Put plainly: HDAC enzyme assay, HDAC3. Type of data set: biochemical. On the procedure: Compounds for testing were diluted in DMSO to 50 fold the final concentration and a ten point three fold dilution series was made. The compounds were diluted in assay buffer (50 mM HEPES, pH 7.4, 100 mM KCl, 0.001% Tween-20, 0.05% BSA, 20 μM TCEP) to 6 fold their final concentration. […] The tripeptide substrate and trypsin at 0.05 μM final concentration were diluted in assay buffer at 6 fold their final concentration. The final enzyme concentrations used in these assays were 3.3 ng/ml (HDAC1), 0.2 ng/ml (HDAC2), 0.08 ng/ml (HDAC3) and 2 ng/ml (HDAC6).
(§1) Five μl of compounds and 20 μl of enzyme were added to wells of a black, opaque 384 well plate in duplicate. Enzyme and compound were incubated together at room temperature for 10 minutes. Five μ1 of substrate was added to each well, the plate was shaken for 60 seconds and placed into a Victor 2 microtiter plate reader. The development of fluorescence was monitored for 60 min and the linear rate of the reaction was calculated. The IC50 was determined using Graph Pad Prism by a four parameter curve fit.

The target in data set [4] is HDAC6 (Homo sapiens (Human), UniProt Q9UBN7). Put plainly: HDAC enzyme assay, HDAC6. Type of data set: biochemical. On the procedure:
(§2) Compounds for testing were diluted in DMSO to 50 fold the final concentration and a ten point three fold dilution series was made. The compounds were diluted in assay buffer (50 mM HEPES, pH 7.4, 100 mM KCl, 0.001% Tween-20, 0.05% BSA, 20 μM TCEP) to 6 fold their final concentration. The HDAC enzymes (purchased from BPS Biosciences) were diluted to 1.5 fold their final concentration in assay buffer. The tripeptide substrate and trypsin at 0.05 μM final concentration were diluted in assay buffer at 6 fold their final concentration. The final enzyme concentrations used in these assays were 3.3 ng/ml (HDAC1), 0.2 ng/ml (HDAC2), 0.08 ng/ml (HDAC3) and 2 ng/ml (HDAC6). The final substrate concentrations used were 16 μM (HDAC1), 10 μM (HDAC2), 17 μM (HDAC3) and 14 μM (HDAC6).
as §1, with “fit. The IC50 values obtained for several of the compounds of this invention are found in Table 1.” for “fit.”

In data set [5] the target is HDAC1 (Homo sapiens (Human), UniProt Q13547). Kind of data set: HDAC enzyme assay, HDAC1. Type of data set: biochemical. As for the experimental part: as §2, §1
Chain of HDAC1 (Q13547 whole entry): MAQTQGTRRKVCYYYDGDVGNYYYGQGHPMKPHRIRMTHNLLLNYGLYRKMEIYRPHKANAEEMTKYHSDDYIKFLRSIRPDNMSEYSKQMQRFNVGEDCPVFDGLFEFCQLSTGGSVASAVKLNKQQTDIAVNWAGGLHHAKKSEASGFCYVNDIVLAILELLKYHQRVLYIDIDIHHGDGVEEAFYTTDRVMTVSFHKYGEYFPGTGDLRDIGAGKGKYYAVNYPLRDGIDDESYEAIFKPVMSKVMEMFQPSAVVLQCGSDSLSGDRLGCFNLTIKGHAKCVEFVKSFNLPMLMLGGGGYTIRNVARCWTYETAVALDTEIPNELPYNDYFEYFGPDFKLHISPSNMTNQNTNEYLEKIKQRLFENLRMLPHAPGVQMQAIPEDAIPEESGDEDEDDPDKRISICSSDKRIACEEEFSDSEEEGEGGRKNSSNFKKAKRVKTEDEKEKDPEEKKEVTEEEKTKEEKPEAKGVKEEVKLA
Data set [6] addresses HDAC2 (Homo sapiens (Human), UniProt Q92769). Put plainly: HDAC enzyme assay, HDAC2. Type of data set: biochemical. As for the experimental part:
as §2, §1

In data set [7] the test system is human CD34+ bone marrow cells. Put plainly: Cellular viability of cultured CD34+ bone marrow cells. The following applies: 1 μM, treatment for 4 days.
Data set [8] deals with SK-N-BE(2) neuroblastoma cells. Kind of data set: Neuroblastoma cell cycle and p21, SK-N-BE(2). It is filed as cell-based. Particulars: 4 days. As for the experimental part: SK-N-BE(2) neuroblastoma cells were treated with varying concentrations of either Compound X or Y, and/or ATRA (all trans retinoic acid). The percentage of the population of the cells at various stages of the cell cycle were measured after 4 days. In addition, the fold change of p21 was also calculated. […] The HDACi/ATRA combination effects were modest, with little difference compared to single agents.

Chain of HDAC2 (Q92769 whole entry): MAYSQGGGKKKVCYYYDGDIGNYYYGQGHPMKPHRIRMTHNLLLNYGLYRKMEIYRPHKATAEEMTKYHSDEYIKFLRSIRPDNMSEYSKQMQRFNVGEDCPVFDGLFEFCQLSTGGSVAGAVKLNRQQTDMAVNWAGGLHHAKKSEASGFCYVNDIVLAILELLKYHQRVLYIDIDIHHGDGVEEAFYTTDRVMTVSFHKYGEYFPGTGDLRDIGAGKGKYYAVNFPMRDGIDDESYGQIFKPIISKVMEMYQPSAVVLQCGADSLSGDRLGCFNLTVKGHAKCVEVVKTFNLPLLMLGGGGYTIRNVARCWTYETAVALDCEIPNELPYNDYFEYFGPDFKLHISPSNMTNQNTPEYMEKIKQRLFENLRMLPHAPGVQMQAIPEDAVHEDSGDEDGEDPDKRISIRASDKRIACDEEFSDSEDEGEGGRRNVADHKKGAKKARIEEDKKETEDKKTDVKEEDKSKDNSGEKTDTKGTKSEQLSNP
Chain of HDAC6 (Q9UBN7 whole entry): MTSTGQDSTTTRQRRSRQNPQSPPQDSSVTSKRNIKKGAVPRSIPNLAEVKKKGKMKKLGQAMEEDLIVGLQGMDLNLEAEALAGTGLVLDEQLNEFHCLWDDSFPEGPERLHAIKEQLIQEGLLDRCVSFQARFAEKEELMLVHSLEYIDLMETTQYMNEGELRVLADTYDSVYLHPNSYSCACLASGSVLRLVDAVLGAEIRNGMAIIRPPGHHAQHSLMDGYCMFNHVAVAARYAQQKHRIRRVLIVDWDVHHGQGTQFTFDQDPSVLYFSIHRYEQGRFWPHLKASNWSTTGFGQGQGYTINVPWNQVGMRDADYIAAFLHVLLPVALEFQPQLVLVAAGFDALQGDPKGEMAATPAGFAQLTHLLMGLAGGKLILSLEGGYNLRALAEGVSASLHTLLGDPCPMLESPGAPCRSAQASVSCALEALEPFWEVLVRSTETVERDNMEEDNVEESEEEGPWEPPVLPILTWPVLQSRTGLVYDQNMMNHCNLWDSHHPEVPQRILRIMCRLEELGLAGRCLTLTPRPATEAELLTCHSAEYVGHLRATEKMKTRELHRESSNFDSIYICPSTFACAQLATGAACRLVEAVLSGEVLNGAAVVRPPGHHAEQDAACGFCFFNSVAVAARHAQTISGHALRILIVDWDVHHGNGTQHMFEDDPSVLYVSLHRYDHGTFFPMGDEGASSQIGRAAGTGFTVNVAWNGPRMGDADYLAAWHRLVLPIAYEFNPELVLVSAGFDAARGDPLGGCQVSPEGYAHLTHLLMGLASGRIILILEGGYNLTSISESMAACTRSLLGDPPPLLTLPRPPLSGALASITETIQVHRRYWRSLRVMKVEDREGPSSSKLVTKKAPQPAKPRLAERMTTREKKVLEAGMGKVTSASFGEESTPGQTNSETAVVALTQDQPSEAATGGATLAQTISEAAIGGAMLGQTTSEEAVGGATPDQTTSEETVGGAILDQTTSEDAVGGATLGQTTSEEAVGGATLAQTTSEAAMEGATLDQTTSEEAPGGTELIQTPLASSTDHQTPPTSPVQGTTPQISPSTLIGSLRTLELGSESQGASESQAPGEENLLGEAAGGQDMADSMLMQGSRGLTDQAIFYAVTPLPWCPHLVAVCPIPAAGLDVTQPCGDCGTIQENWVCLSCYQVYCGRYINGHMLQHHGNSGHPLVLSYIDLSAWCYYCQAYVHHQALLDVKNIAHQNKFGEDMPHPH
Chain of HDAC3 (O15379 whole entry): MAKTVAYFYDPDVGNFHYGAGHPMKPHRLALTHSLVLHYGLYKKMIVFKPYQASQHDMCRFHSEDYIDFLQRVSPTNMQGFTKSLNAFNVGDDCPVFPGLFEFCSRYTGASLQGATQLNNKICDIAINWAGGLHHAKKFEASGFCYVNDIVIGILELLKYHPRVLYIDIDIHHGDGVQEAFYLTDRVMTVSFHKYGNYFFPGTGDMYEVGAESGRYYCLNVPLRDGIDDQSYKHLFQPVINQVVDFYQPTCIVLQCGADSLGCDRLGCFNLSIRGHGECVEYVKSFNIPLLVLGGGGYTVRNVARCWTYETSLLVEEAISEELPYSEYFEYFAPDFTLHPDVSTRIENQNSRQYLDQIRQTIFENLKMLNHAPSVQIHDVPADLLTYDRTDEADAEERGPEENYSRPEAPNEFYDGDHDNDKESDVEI
Chain of HDAC3 (Q9Y618 395-489 partner): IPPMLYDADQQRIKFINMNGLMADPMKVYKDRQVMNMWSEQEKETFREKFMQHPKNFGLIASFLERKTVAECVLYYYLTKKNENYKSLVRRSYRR

On to `CC1=C(/C=C/C(C)=C/C=C/C(C)=C/C(=O)O)C(C)(C)CCC1` [ATRA, all trans retinoic acid, reference compound], for which the “differentiation index, low-concentration ATRA” value in data set [1] is “sub-optimal”. Besides, the “percent of the cell population in G2, S, G1 and Sub G1 phase” value in data set [2] (72 hours, 0.5, 2 and 5 μM (ATRA 1 μM)) is “little impact on cell cycle”.
Regarding `O=C(NO)c1cnc(NC2(c3ccccc3)CCN(S(=O)(=O)c3ccc(Cl)cc3)CC2)nc1` [Compound 019, 2-((1-((4-chlorophenyl)sulfonyl)-4-phenylpiperidin-4-yl)amino)-N-hydroxypyrimidine-5-carboxamide], the IC50 (commonly the concentration at which inhibition is half-maximal) was 3.19 µM in data set [3], 0.005 µM in data set [4], 0.854 µM in data set [5] and 0.987 µM in data set [6].
Take `Cc1ccccc1S(=O)(=O)N1CCC(Nc2ncc(C(=O)NO)cn2)(c2ccccc2)CC1` [Compound 020, N-hydroxy-2-((4-phenyl-1-(o-tolylsulfonyl)piperidin-4-yl)amino)pyrimidine-5-carboxamide]: the IC50 came to 1.98 µM in data set [3], 0.0045 µM in data set [4], 0.372 µM in data set [5] and 0.423 µM in data set [6].
With `Cc1ccc(S(=O)(=O)N2CCC(Nc3ncc(C(=O)NO)cn3)(c3ccccc3)CC2)cc1` [Compound 021, N-hydroxy-2-((4-phenyl-1-tosylpiperidin-4-yl)amino)pyrimidine-5-carboxamide], the IC50 worked out at 2.51 µM in data set [3], 0.0045 µM in data set [4], 0.57 µM in data set [5] and 0.642 µM in data set [6].
For the compound `O=C(NO)c1cnc(NC2(c3ccccc3)CCN(S(=O)(=O)c3ccc(C(F)(F)F)cc3)CC2)nc1` [Compound 022, N-hydroxy-2-((4-phenyl-1-((4-(trifluoromethyl)phenyl)sulfonyl)piperidin-4-yl)amino)pyrimidine-5-carboxamide], the IC50 was 2.7 µM in data set [3], 0.0073 µM in data set [4], 0.704 µM in data set [5] and 0.782 µM in data set [6].
With `O=C(NO)c1cnc(NC2(c3ccccc3)CCN(S(=O)(=O)c3ccccc3)CC2)nc1` [Compound 023, N-hydroxy-2-((4-phenyl-1-(phenylsulfonyl)piperidin-4-yl)amino)pyrimidine-5-carboxamide], the IC50 stood at 3.54 µM in data set [3], 0.0046 µM in data set [4], 0.844 µM in data set [5] and 0.829 µM in data set [6].
With `O=C(NO)c1cnc(NC2(c3ccccc3)CCN(C(=O)Nc3c(F)cccc3F)CC2)nc1` [Compound 024, 2-((1-((2,6-difluorophenyl)carbamoyl)-4-phenylpiperidin-4-yl)amino)-N-hydroxypyrimidine-5-carboxamide], the IC50 stood at 0.761 µM in data set [3], 0.0037 µM in data set [4], 0.022 µM in data set [5] and 0.022 µM in data set [6].
As to `C[C@@H](C(=O)N1CCC(C)(Nc2ncc(C(=O)NO)cn2)CC1)c1ccccc1` [Compound 027, (R)—N-hydroxy-2-((4-methyl-1-(2-phenylpropanoyl)piperidin-4-yl)amino)pyrimidine-5-carboxamide], the IC50 was found to be 0.422 µM in data set [3], 0.012 µM in data set [4], 0.13 µM in data set [5] and 0.103 µM in data set [6].
In the case of `O=C(NO)c1cnc(NC2(c3ccccc3)CCN(C(=O)Cc3c[nH]c4ccccc34)CC2)nc1` [Compound 028, 2-((1-(2-(1H-indol-3-yl)acetyl)-4-phenylpiperidin-4-yl)amino)-N-hydroxypyrimidine-5-carboxamide], the IC50 in data set [3] came to 0.024 µM; in data set [4], 0.0028 µM; in data set [5], 0.003 µM; in data set [6] it was 0.002 µM.
`O=C(NO)c1cnc(NC2(c3ccccc3)CCN(C(=O)Cc3cc4ccccc4[nH]3)CC2)nc1` [Compound 031, 2-((1-(2-(1H-indol-2-yl)acetyl)-4-phenylpiperidin-4-yl)amino)-N-hydroxypyrimidine-5-carboxamide]: the concentration for half-maximal inhibition (IC50) in data set [3] came to 0.042 µM; in data set [4], 0.005 µM; in data set [5], 0.01 µM; in data set [6] it was 0.009 µM.
`O=C(CCCCCCNC(=O)c1cnc(N(c2ccccc2)c2ccccc2)nc1)NO` [Compound A, 2-(diphenylamino)-N-(7-(hydroxyamino)-7-oxoheptyl) pyrimidine-5-carboxamide, reference compound]: the “decrease in cells viability” value in data set [7] was determined as 20 fold.
As for `O=C(CCCCCCNC(=O)c1cnc(N(c2ccccc2)c2ccccc2Cl)nc1)NO` [Compound Y, 2-((2-chlorophenyl)(phenyl)amino)-N-(7-(hydroxyamino)-7-oxoheptyl)pyrimidine-5-carboxamide], the “differentiation index, low-concentration ATRA” value in data set [1] was “potentiated 0.25 μM ATRA”. For the same compound, the differentiation index entry in data set [1] (varying concentrations, alone) is listed as “induced an increase in the differentiation index”. The “cell cycle stages and fold change of p21” value in data set [8] and in data set [2] (4 days) was “induced cell cycle arrest” in each case.
